According to US8178547B2, “Heterocyclic antiviral compounds” (Roche Palo Alto LLC, priority 2008, dated 2012):

Tests used:
[1] = target: T1, HCV polymerase (NS5B570n-Con1) (Hepatitis C virus genotype 1b, UniProt Q9WMX2); experiment: HCV NS5B RNA polymerase activity; type: biochemical, HCV Con1 strain
T1 construct: a 21 amino acid C-terminal deletion of full-length HCV polymerase; made in house; host or cells: E. coli BL21(DE3) pLysS, plasmid pET17b
Protocol: The enzymatic activity of HCV polymerase (NS5B570n-Con1) was measured as the incorporation of radiolabeled nucleotide monophosphates into acid insoluble RNA products. Unincorporated radiolabeled substrate was removed by filtration and scintillant was added to the washed and dried filter plate containing radiolabeled RNA product. The amount of RNA product generated by NS5B570n-Con1 at the end of the reaction was directly proportional to the amount of light emitted by the scintillant.
The HCV polymerase used in the enzymatic activity assay is a 21 amino acid C-terminal deletion of full-length HCV polymerase derived from HCV Con1 strain, genotype 1b (GenBank accession number AJ242654) (NS5B570n-Con1). The NS5B570n-Con1 was sub-cloned downstream to the T7 promoter of the plasmid expression construct pET17b and transformed into E. coli strain BL21(DE3) pLysS for protein expression. A single colony was used to start an innoculum for a 10 L culture in LB media supplemented with 100 μg/mL ampicillin at 37° C. Protein expression was induced by the addition of 0.25 mM isopropyl-β-D-thiogalactopyranoside (IPTG) when the optical density of the culture at […] was 0.8. Induction of protein expression was carried out at 30° C. for 16 h after which the cells were harvested by centrifugation. NS5B570n-Con1 was purified to homogeneity using a three-column purification protocol including subsequent column chromatography on Ni-NTA, SP-Sepharose HP and Superdex 75 resins.
[…] TRK-412; specific activity: 30 to 60 Ci/mmol;), 1 μM each ATP, CTP, and GTP, 40 mM Tris-HCl pH 8.0, 40 mM NaCl, 4 mM DTT (dithiothreitol), 4 mM MgCl2, 5 μl of compound serial diluted in DMSO, and nuclease-free water to a final reaction volume of 50 μl. Enzymatic reactions in the presence of poly A RNA template (see section 0004) contained 20 nM Poly A:oligo(rU)16 premixed (see section 0004), 20 nM NS5B570n-Con1 enzyme, 1 μCi of tritiated UTP (Perkin Elmer catalog no. TRK-412; specific activity: 30 to 60 Ci/mmol), 40 mM Tris-HCl pH 8.0, 40 mM NaCl, 4 mM DTT (dithiothreitol), 4 mM MgCl2, 5 μl of compound serial diluted in DMSO, and nuclease-free water to a final reaction volume of 50 μl. Reaction mixtures were assembled in 96-well filter plates (cat #MADVN0B, Millipore Co.) and incubated for 2 h at 30° C. Reactions were stopped by addition of 10% final (v/v) trichloroacetic acid and incubated for 40 min at 4° C. Reactions were filtered, washed with 8 reaction volumes of 10% (v/v) trichloroacetic acetic acid, 4 reaction volumes of 70% (v/v) ethanol, air dried, and 25 μl of scintillant (Microscint 20, Perkin-Elmer) was added to each reaction well.
Two RNA templates were used to assay compounds described herein. The cIRES RNA template was 377 nucleotide long and consisted of a partial complementary sequence (36 nucleotides) of the core protein, followed by 341 nucleotide of the complementary sequence of the internal ribosome entry site. The poly A RNA template (GE Amersham catalog number 27-4110) was a homopolymeric RNA pre-annealed to a oligo(rU)16 primer at a molar ratio of 3-to-1 (primer-template).
The amount of light emitted from the scintillant was converted to counts per minute (CPM) on a Topcount® plate reader (Perkin-Elmer, Energy Range: Low, Efficiency Mode: Normal, Count Time: 1 min, Background Subtract: none, Cross talk reduction: Off).
Data was analyzed in Excel® (Microsoft) and ActivityBase® (Idbs®). The reaction in the absence of enzyme was used to determine the background signal, which was subtracted from the enzymatic reactions. […] All data was expressed as a percentage of the positive control. The compound concentration at which the enzyme-catalyzed rate of RNA synthesis was reduced by 50%

[2] = tested on: HCV replicon cells (2209-23), genotype 1b replicon; experiment: HCV replicon assay (Renilla luciferase reporter); type: cell-based, HCV genotype 1b; conditions: Hepatitis C virus, 72 h; 2209-23 cells, three days incubation
in vitro = conditions: human
HCV = conditions: cited from earlier work
[3] = NS5B pol inhibition IC50, cell values marked ^2, as in Example 32 except RNA template concentration 3 nM (footnote 3)
[4] = NS5B pol inhibition IC50, as in Example 32 (20 nM RNA template)

SMILES	IC50 [2] [nM]	IC50 [1, 4] [nM]	melting point [°C]	further results
COC(=O)c1cc(NS(C)(=O)=O)ccc1/C=C/c1cc(-c2cnc(OCc3ccccc3)[nH]c2=O)cc(C(C)(C)C)c1OC [Compound I-24]	40			IC50 [1, 3]: 11 nM; CC50 (in vitro): 4700 nM
COc1c(NC(=O)c2ccc(NS(C)(=O)=O)cc2)cc(-c2ncc[nH]c2=O)cc1C(C)(C)C [Compound I-4, N-[3-tert-Butyl-2-methoxy-5-(3-oxo-3,4-dihydro-pyrazin-2-yl)-phenyl]-4-methanesulfonylamino-benzamide]	347	6		
COc1c(/C=C/c2ccc(NS(C)(=O)=O)cc2C(=O)O)cc(-c2ccn[nH]c2=O)cc1C(C)(C)C [Compound I-9, 2-{(E)-2-[3-tert-Butyl-2-methoxy-5-(3-oxo-2,3-dihydro-pyridazin-4-yl)-phenyl]-vinyl}-5-methanesulfonylamino-benzoic acid]	71	0.2		
COc1ncc(-c2cc(/C=C/c3ccc(NS(C)(=O)=O)cc3)c(OC)c(C(C)(C)C)c2)c(=O)[nH]1 [Compound I-34, N-(4-{(E)-2-[3-tert-Butyl-2-methoxy-5-(2-methoxy-6-oxo-1,6-dihydro-pyrimidin-5-yl)-phenyl]-vinyl}-phenyl) methanesulfonamide]		0.6	296 to 299	
COc1c(/C=C/c2ccc(NS(C)(=O)=O)cc2)cc(-c2ccn[nH]c2=O)cc1C(C)(C)C [Compound I-13, N-(4-{(E)-2-[3-tert-Butyl-2-methoxy-5-(3-oxo-2,3-dihydro-pyridazin-4-yl)-phenyl]-vinyl}-phenyl)-methanesulfonamide]	1	4		
CC1(C)COc2c(-c3ccn[nH]c3=O)cc(/C=C/c3ccc(NS(C)(=O)=O)cc3)cc21 [Compound I-21, N-(4-{(E)-2-[3,3-Dimethyl-7-(3-oxo-2,3-dihydro-pyridazin-4-yl)-2,3-dihydro-benzofuran-5-yl]-vinyl}-phenyl)-methanesulfonamide]	113		255 to 257	IC50 [1, 3]: 2 nM
CC(C)(C)c1cc(/C=C/c2ccc(NS(C)(=O)=O)cc2)cc(-c2ncc[nH]c2=O)c1 [Compound I-10]		7	283 to 285	
Cc1cc(-c2ccn[nH]c2=O)cc(C(C)(C)C)c1 [Compound I-12]		390	175 to 176	
COc1c(/C=C/c2ccc(NS(C)(=O)=O)cc2)cc(-c2ccn[nH]c2=O)cc1C1CC1 [Compound I-26, N-(4-{(E)-2-[3-Cyclopropyl-2-methoxy-5-(3-oxo-2,3-dihydro-pyridazin-4-yl)-phenyl]-vinyl}-phenyl)-methanesulfonamide]		2.1	269 to 271	
COc1c(CCc2ccc(NS(C)(=O)=O)cc2)cc(-c2ncc[nH]c2=O)cc1C(C)(C)C [Compound I-1, N-(4-{2-[3-tert-Butyl-2-methoxy-5-(3-oxo-3,4-dihydro-pyrazin-2-yl)-phenyl]-ethyl}-phenyl)-methanesulfonamide]	112	15	238 to 240	CC50 (in vitro): 24200 nM
COc1c(/C=C/c2ccc(NS(C)(=O)=O)cc2)cc(-c2cnc[nH]c2=O)cc1C(C)(C)C [Compound I-22, N-(4-{(E)-2-[3-tert-Butyl-2-methoxy-5-(6-oxo-1,6-dihydro-pyrimidin-5-yl)-phenyl]-vinyl}-phenyl)-methanesulfonamide]				IC50 [1, 3]: 2 nM; CC50 (in vitro): 23200 nM
NC(=O)c1ncn([C@@H]2O[C@H](CO)[C@@H](O)[C@H]2O)n1 [ribavirin, 1-((2R,3R,4S,5R)-3,4-Dihydroxy-5-hydroxymethyl-tetrahydro-furan-2-yl)-1H[1,2,4]triazole-3-carboxylic acid amide]				serum levels of HCV-RNA (HCV; monotherapy / sole treatment): does not lower serum levels of HCV-RNA; patients with serum amino transferase levels reduced to normal (HCV; monotherapy): 40%
COc1c(/C=C/c2ccc(NS(C)(=O)=O)cc2)cc(-c2c[nH]c(=O)[nH]c2=O)cc1OC(F)(F)F [Compound I-42, N-(4-{(E)-2-[5-(2,4-Dioxo-1,2,3,4-tetrahydro-pyrimidin-5-yl)-2-methoxy-3-trifluoromethoxy-phenyl]-vinyl}-phenyl)-methanesulfonamide]		6.7	202 to 205	
COc1c(/C=C/c2ccc(NS(C)(=O)=O)cc2)cc(-c2cnc(N(C)C)[nH]c2=O)cc1C(C)(C)C [Compound I-33, N-(4-{(E)-2-[3-tert-Butyl-5-(2-dimethylamino-6-oxo-1,6-dihydro-pyrimidin-5-yl)-2-methoxy-phenyl]-vinyl}-phenyl)-methanesulfonamide]		2.6	> 300	
COc1c(/C=C/c2ccc(NS(C)(=O)=O)cc2)cc(-c2c[nH]c(=O)[nH]c2=O)c2c1C(C)(C)CO2 [Compound I-28, N-(4-{(E)-2-[7-(2,4-dioxo-1,2,3,4-tetrahydro-pyrimidin-5-yl)-4-methoxy-3,3-dimethyl-2,3-dihydro-benzofuran-5-yl]-vinyl}-phenyl)-methanesulfonamide]		0.6	> 300	
CC(C)(C)c1cc(/C=C/c2ccc(NS(C)(=O)=O)cc2)c(O)c(-c2ncc[nH]c2=O)c1 [Compound I-6, N-(4-{(E)-2-[5-tert-Butyl-2-hydroxy-3-(3-oxo-3,4-dihydro-pyrazin-2-yl)-phenyl]-vinyl}-phenyl)-methanesulfonamide]		454	280 to 282	
COc1c(/C=C/c2ccc(NS(C)(=O)=O)cc2)cc(-c2cc(C)n[nH]c2=O)cc1C(C)(C)C [Compound I-17]		10	292 to 294	
COc1c(/C=C/c2ccccc2)cc(-c2ccn[nH]c2=O)cc1C(C)(C)C [Compound I-14]		7	100 to 102	
CC1(C)COc2c(-c3ncc[nH]c3=O)cc(/C=C/c3ccc(NS(C)(=O)=O)cc3)cc21 [Compound I-23, N-(4-{(E)-2-[3,3-Dimethyl-7-(3-oxo-3,4-dihydro-pyrazin-2-yl)-2,3-dihydro-benzofuran-5-yl]-vinyl}-phenyl)-methanesulfonamide]			302 to 304	IC50 [1, 3]: 19 nM
COc1c(/C=C/c2ccc(NS(C)(=O)=O)cc2)cc(-c2c[nH]c(=O)[nH]c2=O)cc1C1(C(F)F)CC1 [Compound I-30, N-(4-{(E)-2-[3-(1-Difluoromethyl-cyclopropyl)-5-(2,4-dioxo-1,2,3,4-tetrahydro-pyrimidin-5-yl)-2-methoxy-phenyl]-vinyl}-phenyl)-methanesulfonamide]		0.3	292 to 295	
